Read-outs that look alike come from different tables or passages of the source.
Tests used:
[1] = system: Hepatitis C virus (replicon); test: Antiviral activity, Hepatitis C virus replicon (Huh7 cells); type: cell-based; conditions: Huh-7
[2] = system: HT1080 human fibrosarcoma cells; test: De novo pyrimidine nucleotide synthesis from 15N-glutamine in HT1080 cells; type: cell-based; conditions: 100 nM
From the text: In this Example, fibrosarcoma cells were used to investigate the effect of PTC299 on pyrimidine nucleotide synthesis. Glutamine is an upstream precursor of dihydroorotic acid in the de novo pyrimidine synthesis pathway, as illustrated in FIG. 1.

[3] = system: primary acute myeloid leukemia (AML) blast cells; test: Primary AML blast cell assay with and without uridine; type: cell-based; conditions: uridine 0, 3, 10, 30, or 100 µM
Protocol: FIG. 5 is a plot showing the fraction of total blasts relative to DMSO control vs PTC299 concentration in nM, from an assay of the ability of PTC299 to suppress DHODH activity in the presence of increasing concentrations of uridine (0, 3, 10, 30, or 100 µM) .
The ability of PTC299 to inhibit DHODH was further tested using primary acute myeloid leukemia (AML) blast cells that are reliant upon the de novo pyrimidine nucleotide pathway to obtain pyrimidine nucleotides.

[4] = system: TH2 cells plus venular endothelial cells (/TH2); test: BioMAP profiling, /TH2 system; type: cell-based; conditions: Endothelial cell; for inhibition at 0.1 µM: /TH2, 100 nM
Protocol: The effect of PTC299 on cytokine production was assessed using BioMAP profiling (BioSeek, now part of Eurofins). The BioMAP system is comprised of complex co-cultures of primary peripheral blood mononuclear cells (PBMCs) with other cell types including B cells, fibroblasts, and endothelial cells allowing for the measurement of physiologically relevant biomarker readouts of the activity of a compound. Using this system, cytokine production was evaluated in the following models of primary cell disease models: • Peripheral blood mononuclear cells (PBMCs) plus venular endothelial cells (sAg) • PBMCs plus B cells (BT) • PBMCs plus fibroblasts (HDFSAg) • TH2 cells plus venular endothelial cells (/TH2).
Abbreviations in Table 4: BCR, B-cell receptor; BT System, co-culture of CD19+ B cells and PBMC that utilizes BCR stimulation and sub-mitogenic TCR stimulation; HDFSAg system, co-culture of human primary dermal fibroblasts and PBMC that is stimulated with sub-mitogenic TCR levels; IL, interleukin; PBMC, Peripheral Blood Mononuclear Cell; SAg system, co-culture of endothelial cells and PBMC stimulated with mitogenic levels of TCR ligands; TCR, T-cell receptor; /TH2 system, co-culture of endothelial cells and Th2 blasts stimulated with TCR ligands and cytokines; Th2, T helper type 2; VEGF, vascular endothelial growth factor.

[5] = Rhesus monkey single oral dose PK; type: in vivo, Rhesus monkeys; conditions: single oral 10 mg/kg dose
Protocol: FIG. 10 is a plot of PTC299 plasma concentration (µg/mL) vs hours of plasma dihydroorotate (DHO) and PTC299 concentrations after a single dose of PTC299 was administered to a single monkey.
The dosing regimen used in the current study was also supported by experiments performed in Rhesus monkeys. Monkeys were given a single oral 10 mg/kg dose of PTC299. The DHO plasma level increased after dosing, peaked at 24 hours and then decreased, as illustrated in FIG. 10. […] The AUC for PTC299 is consistent with that observed in the healthy volunteer study PTC299-ONC-002-HV indicating this exposure would result in inhibition of DHODH and supports the use of the 200 mg BID dosing regimen in the current study.

[6] = AML phase 1b study PTC299-HEM-001-LEU, PK; type: in vivo, human; conditions: 80 mg QD tablet loading dose for 7 days followed by 40 mg maintenance dose (cohort 2), AML patients
Protocol: It was anticipated that elimination would not be saturated with 50 mg tablet QD after 7 days of 200 mg tablet BID dosing. This is supported by results from the ongoing AML open-label, non-randomized, phase 1b study, PTC299-HEM-001-LEU.

[7] = Clinical studies of PTC299 (oncology patients, healthy volunteers): tolerability; type: in vivo, human
From the text: PTC299 has been extensively evaluated in 9 clinical studies; 5 were in oncology (n=134) and 4 were in healthy volunteers (n=169).
The rationale for this dosing is based on the following: • The dosing regimen utilizes results from PTC’s extensive clinical, safety, and clinical pharmacology experience with the capsule formulation of PTC299 that was used in prior solid tumor clinical studies. • The tablet formulation has approximately 40% relative bioavailability compared with the capsule when administered with food. • The 200 mg BID dosing for 7 days have been tested previously in healthy volunteers in study PTC299-ONC-002-HV with no serious adverse events. […] The dosing of 200 mg BID for the first 7 days will raise the exposure of the drug quickly to accommodate the need for rapid onset of PTC299 activity..

SARS-CoV-2 USA-WA1/2020 = test: PTC299 and remdesivir alone or combined, SARS-CoV-2 titer in Vero cells (TCID50); type: cell-based; conditions: 24 hours post infection
[8] = system: primary acute myeloid leukemia (AML) blast cells; conditions: Cao 2020; cited from earlier work
[9] = In vivo rat micronucleus assay
[10] = Cytotoxicity in Vero cells by intracellular ATP; conditions: African green monkey
[11] = Single- and repeat-dose toxicology studies in dogs
[12] = system: Chinese hamster ovary cells
DHODH = test: Study PTC299-ONC-007-NF2: serum DHO and VEGF in neurofibromatosis type 2 patients; conditions: 100 mg BID

COc1ccc([C@H]2c3[nH]c4ccc(Cl)cc4c3CCN2C(=O)Oc2ccc(Cl)cc2)cc1 [PTC299, 4-chlorophenyl (S)-6-chloro-1-(4-methoxyphenyl)-1,3,4,9-tetrahydro-2H-pyrido[3,4-b]indole-2-carboxylate]
EC50 [1]: 0.036 µM | suppression of de novo pyrimidine nucleotide biosynthesis [2]: resulted in suppression of de novo pyrimidine nucleotide biosynthesis | effect of exogenous uridine on PTC299-dependent cytotoxicity [3]: reversal of the effects of PTC299-dependent cytotoxicity by the addition of exogenous uridine | inhibition at 0.01 µM ([4]; /TH2, 10 nM, read-out: % Inhibition MCP-1 (converted)): 21% | inhibition at 0.1 µM ([4]; read-out: % Inhibition MCP-1 (converted)): 25% | inhibition at 0.1 µM ([4]; read-out: % Inhibition sIL-17): 23% | AUC ([5]; plasma, read-out: AUC of PTC299): 22.5 µg·h/mL | Cmax ([5]; plasma, read-out: Cmax of PTC299): 2.51 µg/mL | half-life ([5]; plasma, read-out: Half-life of PTC299 (converted)): 33 h | Tmax of PTC299 [5]: 2 hr post-dose | time to steady state [6]: ~15 days | tolerability across 9 clinical studies ([7]; oncology n=134, healthy volunteers n=169, range of dosing regimens): generally well tolerated | dose-related hepatotoxicity ([7]; prior clinical studies): observed at higher doses and longer treatment durations (>85 days) | reduction in SARS-CoV-2 titer (SARS-CoV-2 USA-WA1/2020; PTC299 250 nM): 96% | reduction in SARS-CoV-2 titer (SARS-CoV-2 USA-WA1/2020; PTC299 500 nM): 98% | effect on primary AML blast cells [8]: caused a G1/S cell-cycle arrest, inhibition of proliferation, and cell death | in vivo rat micronucleus assay [9]: negative | CC50 at 48 h [10]: > 10 µM | alanine aminotransferase, aspartate aminotransferase, and total bilirubin ([11]; dogs dosed through 28 days): no increases | histopathologic findings in the liver ([11]; dogs dosed through 28 days): no histopathologic findings in the liver | PTC299-related mortality ([11]; dogs, toxicology studies): No PTC299-related mortality was observed | chromosomal aberration assay [12]: negative | serum VEGF levels (DHODH; 8 weeks versus pre-dose): significantly reduced after 8 weeks of treatment | serum DHO levels (DHODH; post-dose versus pre-dose): elevated at 8 or 16 weeks

Reference: patent US20230172915A1, “DHODH INHIBITOR FOR THE TREATMENT OF COVID-19” (priority 2020, published 2023)
